Results on three compounds are retold here after US7863285B2, “Purinone derivatives as HM74A agonists” (Incyte Corporation, priority 2006, dated 2011).

The target of test [1] is T1, human HM74a (Homo sapiens, UniProt Q8TDS4). Nature of the test: GTPγS recruitment assay. The class given is biochemical. Set-up: expressed in transfected cells; host or cells: HEK293 cells, transient transfection, membrane preparation. The settings on record: membranes of HEK293 cells transfected with human HM74a and Gα0; 35S GTPγS. Here is the method: Membranes were prepared from HEK293 cells transiently transfected with human HM74a and Gα0 protein. Assays were performed in 384-well format in a volume of 50 μL per assay point. Serial dilutions of compounds were prepared in the assay buffer (20 mM HEPES pH. 7.4, 100 mM NaCl, 10 mM MgCl2, 10 mg/L saponin and 10 μM GDP) and mixed with membranes (2 μg per assay point) and ^35S GTPγS (Amersham, 0.3 nM) in the assay buffer. The mixtures were incubated at room temperature for 30 min and wheat germ agglutinin SPA beads (Amersham) (0.2 mg per assay point) in the assay buffer were added. After 30 min incubation with agitation, plates were centrifuged at 1500 g for 5 min and bound ^35S GTPγS was determined by counting on a TopCount scintillation counter.
For orientation: GTPγS is a poorly hydrolysed GTP analogue; its binding reports G protein activation.
Target sequence in this assay (Q8TDS4 whole entry): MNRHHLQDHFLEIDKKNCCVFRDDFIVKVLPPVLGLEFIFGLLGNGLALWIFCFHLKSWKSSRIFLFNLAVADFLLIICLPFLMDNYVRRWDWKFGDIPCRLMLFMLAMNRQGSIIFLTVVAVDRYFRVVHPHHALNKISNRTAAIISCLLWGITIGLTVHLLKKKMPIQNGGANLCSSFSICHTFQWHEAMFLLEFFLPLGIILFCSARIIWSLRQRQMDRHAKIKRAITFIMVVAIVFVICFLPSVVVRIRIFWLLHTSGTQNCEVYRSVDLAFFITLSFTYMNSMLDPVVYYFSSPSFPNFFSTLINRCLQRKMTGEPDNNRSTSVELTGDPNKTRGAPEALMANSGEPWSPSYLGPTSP
Target sequence in this assay (P09471 2-354 partner limits assumed): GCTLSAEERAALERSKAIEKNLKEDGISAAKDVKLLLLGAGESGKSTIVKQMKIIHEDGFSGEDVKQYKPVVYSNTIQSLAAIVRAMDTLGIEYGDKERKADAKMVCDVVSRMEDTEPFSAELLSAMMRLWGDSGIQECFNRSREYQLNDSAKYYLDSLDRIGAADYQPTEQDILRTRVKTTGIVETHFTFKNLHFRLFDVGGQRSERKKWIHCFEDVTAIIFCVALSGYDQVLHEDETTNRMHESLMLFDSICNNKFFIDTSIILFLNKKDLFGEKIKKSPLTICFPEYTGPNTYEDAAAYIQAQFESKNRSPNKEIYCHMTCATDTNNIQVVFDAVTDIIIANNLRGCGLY
Target sequence in this assay (P62873 2-340 partner limits assumed): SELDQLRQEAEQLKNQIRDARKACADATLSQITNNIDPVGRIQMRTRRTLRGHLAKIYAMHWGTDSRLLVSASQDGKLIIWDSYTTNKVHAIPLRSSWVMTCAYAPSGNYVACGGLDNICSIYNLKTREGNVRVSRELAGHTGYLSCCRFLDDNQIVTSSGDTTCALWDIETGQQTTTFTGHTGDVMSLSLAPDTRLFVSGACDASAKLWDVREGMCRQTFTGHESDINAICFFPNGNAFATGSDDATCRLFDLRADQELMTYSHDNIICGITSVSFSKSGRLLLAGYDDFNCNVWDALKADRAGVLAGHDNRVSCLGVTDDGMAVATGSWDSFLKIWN
Target sequence in this assay (P59768 2-68 partner limits assumed): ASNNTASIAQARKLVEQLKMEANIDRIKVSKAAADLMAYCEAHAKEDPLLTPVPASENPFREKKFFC

In test [2] the test system is mature adipocytes. Nature of the test: Adipocyte lipolysis assay. The settings on record: glycerol in supernatants after overnight culture with IBMX (100 μM). The class given is cell-based. Here is the method:
Preadipocytes purchased from Zen Bio were plated at 8.7×10^4 cells/well in 96-well plates, differentiated for 14 days and mature adipocytes assayed during days 15 through 21. Adipocyte maturation is assessed by the presence of rounded cells with large lipid droplets in the cytoplasm. Following maturation, cells were washed and incubated overnight with IBMX (100 μM) and various concentrations of compound diluted in assay buffer containing a final DMSO concentration of 0.1%. After overnight culture, the glycerol concentration in the supernatants was determined with the Lipolysis Assay Kit purchased from Zen-Bio. Absorbance at 540 nm is directly proportional to the glycerol concentration in the sample. IC50 determinations were based on compound inhibition relative to DMSO controls. […] For example, the compound of Example 1 has an IC50 of 100 nM in this assay.

The target of test [3] is T1, human HM74a. As to the kind of experiment: cAMP assay. The class given is cell-based. Set-up: expressed in transfected cells. The note with it: CHO cells stably transfected with human HM74a; 5 μM forskolin; inhibition relative to DMSO controls. Here is the method:
CHO cells stably transfected with human HM74a were seeded at 7,500 cells/well in a 96-well plate in HAMS F12 medium with 10% FBS. The plate was incubated overnight at 37° C. and 5% CO2. The test compounds were prepared in a stimulation buffer containing 1×HANKS, 20 mM HEPES, 5 μM forskolin, and 0.25 mM IBMX. The media from the cell plate was removed before adding 30 μL of the test compounds. After 30 minute incubation at 37° C. and 5% CO2, the cAMP level was assayed using HitHunter cAMP XS assay kit (DiscoverX, CA). IC50 determinations were based on compound inhibition relative to DMSO controls.
Target sequence in this assay (Q8TDS4 whole entry): as the sequence (Q8TDS4 whole entry) above

For test [4] the following is noted: clinical, cited from earlier work; for lowering of plasma LDL: monotherapy.

pEC50, pIC50: −log10 of the molar value.

`CCCCCn1c(=O)n2cnnc2c2[nH]c(C(F)(F)F)nc21` [Example 1, 6-pentyl-8-(trifluoromethyl)-6,9-dihydro-5H-[1,2,4]triazolo[3,4-i]purin-5-one] showed a pEC50 in test [1] of 7.21. In addition, the negative-log IC50 (pIC50) in test [2] was 7.00; in test [3], 7.70.

In the case of `O=C(O)c1cccnc1` [Nicotinic acid, nicotinic acid], in test [4], the “lowering of plasma LDL” value is 16%, the “decrease of plasma triglycerides” value is listed as 38% and the “raising HDL levels” value was 20-30%.

As to `O=C1[C@H](CC[C@H](O)c2ccc(F)cc2)[C@@H](c2ccc(O)cc2)N1c1ccc(F)cc1` [Ezetimibe], the “lowering of plasma LDL” value in test [4] is 20%.

For orientation: pEC50 means −log10 of the EC50, conventionally taken in molar units. Higher therefore signals a small EC50. By pIC50 is commonly meant the IC50 on a negative log10 scale, so that one unit is a factor of ten. The low end stands for a large IC50, the high end for a small IC50.
